# Experimental data as given in ChEMBL document CHEMBL4507262, “Data for DCP probe A-1596586” (2021).
# Columns and labels:
# [1] = target: Aurora kinase C (Homo sapiens) (UniProt Q9UQB9); details: Compound concentration 1000.0 nM
# [2] = target: Proto-oncogene tyrosine-protein kinase receptor Ret (Homo sapiens) (UniProt P07949); details: Compound concentration 1000.0 nM
# [3] = target: Tyrosine-protein kinase HCK (Homo sapiens) (UniProt P08631); details: Compound concentration 1000.0 nM
# [4] = target: Cyclin-dependent kinase 15 (Homo sapiens) (UniProt Q96Q40); details: Compound concentration 1000.0 nM
# [5] = target: Serine/threonine-protein kinase 24 (Homo sapiens) (UniProt Q9Y6E0); details: Compound concentration 1000.0 nM
# [6] = test system: Mast/stem cell growth factor receptor Kit (Homo sapiens), P10721 [V559D]; details: Compound concentration 1000.0 nM
# [7] = target: Aurora kinase B (Homo sapiens) (UniProt Q96GD4); details: Compound concentration 1000.0 nM
# Chain of Aurora kinase B (Homo sapiens) (Q96GD4 whole entry): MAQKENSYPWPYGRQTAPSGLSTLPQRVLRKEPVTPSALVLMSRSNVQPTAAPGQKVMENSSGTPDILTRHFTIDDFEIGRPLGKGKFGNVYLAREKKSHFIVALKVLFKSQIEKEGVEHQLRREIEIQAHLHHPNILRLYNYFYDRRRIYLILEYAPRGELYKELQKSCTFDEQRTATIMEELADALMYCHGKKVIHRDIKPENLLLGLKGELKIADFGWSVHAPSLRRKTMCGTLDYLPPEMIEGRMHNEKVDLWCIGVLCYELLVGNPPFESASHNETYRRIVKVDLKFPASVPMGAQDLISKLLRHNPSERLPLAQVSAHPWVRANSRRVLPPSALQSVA
# [8] = target: Vascular endothelial growth factor receptor 2 (Homo sapiens) (UniProt P35968); details: Compound concentration 1000.0 nM
# [9] = target: Homeodomain-interacting protein kinase 3 (Homo sapiens) (UniProt Q9H422); details: Compound concentration 1000.0 nM
# [10] = target: Serine/threonine-protein kinase MRCK beta (Homo sapiens) (UniProt Q9Y5S2); details: Compound concentration 1000.0 nM
# [11] = target: Vasopressin V1a receptor (Homo sapiens) (UniProt P37288); assay: V1 a (h) Eurofins-Cerep binding assay; set-up: ligand concentration 0.3 nM; details: filed as agonist, Compound concentration 10.0 uM
# [12] = target: Macrophage-stimulating protein receptor (Homo sapiens) (UniProt Q04912); details: Compound concentration 1000.0 nM
# [13] = target: Protein kinase C epsilon type (Homo sapiens) (UniProt Q02156); details: Compound concentration 1000.0 nM
# [14] = target: STE20-like serine/threonine-protein kinase (Homo sapiens) (UniProt Q9H2G2); details: Compound concentration 1000.0 nM
# [15] = target: Dual specificity protein kinase CLK2 (Homo sapiens) (UniProt P49760); details: Compound concentration 1000.0 nM
# [16] = target: Serine/threonine-protein kinase BRSK2 (Homo sapiens) (UniProt Q8IWQ3); details: Compound concentration 1000.0 nM
# [17] = target: Mitotic checkpoint serine/threonine-protein kinase BUB1 (Homo sapiens) (UniProt O43683); details: Compound concentration 1000.0 nM
# [18] = target: Serine/threonine-protein kinase Nek1 (Homo sapiens) (UniProt Q96PY6); details: Compound concentration 1000.0 nM
# [19] = target: Beta-3 adrenergic receptor (Homo sapiens) (UniProt P13945); details: Compound concentration 10.0 uM
# [20] = target: Cyclin-dependent kinase 18 (Homo sapiens) (UniProt Q07002); details: Compound concentration 1000.0 nM
# [21] = target: Tyrosine-protein kinase SYK (Homo sapiens) (UniProt P43405); details: Compound concentration 1000.0 nM
# [22] = target: Mitogen-activated protein kinase 15 (Homo sapiens) (UniProt Q8TD08); details: Compound concentration 1000.0 nM
# [23] = target: MAP/microtubule affinity-regulating kinase 4 (Homo sapiens) (UniProt Q96L34); details: Compound concentration 1000.0 nM
# [24] = target: Platelet-derived growth factor receptor alpha (Homo sapiens) (UniProt P16234); details: Compound concentration 1000.0 nM
# [25] = target: Histamine H2 receptor (Homo sapiens) (UniProt P25021); assay: H2 (h) Eurofins-Cerep binding assay; set-up: ligand concentration 0.075 nM; details: filed as antagonist, Compound concentration 10.0 uM
# [26] = target: Protein kinase C iota type (Homo sapiens) (UniProt P41743); details: Compound concentration 1000.0 nM
# [27] = target: Myosin-IIIa (Homo sapiens) (UniProt Q8NEV4); details: Compound concentration 1000.0 nM
# [28] = target: Macrophage colony-stimulating factor 1 receptor (Homo sapiens) (UniProt P07333); details: Compound concentration 1000.0 nM
# [29] = test system: Epidermal growth factor receptor (Homo sapiens), P00533 [UNDEFINED MUTATION]; details: Compound concentration 1000.0 nM
# Chain of Epidermal growth factor receptor (Homo sapiens), P00533 [UNDEFINED MUTATION] (P00533 whole entry, looked up, change not shown): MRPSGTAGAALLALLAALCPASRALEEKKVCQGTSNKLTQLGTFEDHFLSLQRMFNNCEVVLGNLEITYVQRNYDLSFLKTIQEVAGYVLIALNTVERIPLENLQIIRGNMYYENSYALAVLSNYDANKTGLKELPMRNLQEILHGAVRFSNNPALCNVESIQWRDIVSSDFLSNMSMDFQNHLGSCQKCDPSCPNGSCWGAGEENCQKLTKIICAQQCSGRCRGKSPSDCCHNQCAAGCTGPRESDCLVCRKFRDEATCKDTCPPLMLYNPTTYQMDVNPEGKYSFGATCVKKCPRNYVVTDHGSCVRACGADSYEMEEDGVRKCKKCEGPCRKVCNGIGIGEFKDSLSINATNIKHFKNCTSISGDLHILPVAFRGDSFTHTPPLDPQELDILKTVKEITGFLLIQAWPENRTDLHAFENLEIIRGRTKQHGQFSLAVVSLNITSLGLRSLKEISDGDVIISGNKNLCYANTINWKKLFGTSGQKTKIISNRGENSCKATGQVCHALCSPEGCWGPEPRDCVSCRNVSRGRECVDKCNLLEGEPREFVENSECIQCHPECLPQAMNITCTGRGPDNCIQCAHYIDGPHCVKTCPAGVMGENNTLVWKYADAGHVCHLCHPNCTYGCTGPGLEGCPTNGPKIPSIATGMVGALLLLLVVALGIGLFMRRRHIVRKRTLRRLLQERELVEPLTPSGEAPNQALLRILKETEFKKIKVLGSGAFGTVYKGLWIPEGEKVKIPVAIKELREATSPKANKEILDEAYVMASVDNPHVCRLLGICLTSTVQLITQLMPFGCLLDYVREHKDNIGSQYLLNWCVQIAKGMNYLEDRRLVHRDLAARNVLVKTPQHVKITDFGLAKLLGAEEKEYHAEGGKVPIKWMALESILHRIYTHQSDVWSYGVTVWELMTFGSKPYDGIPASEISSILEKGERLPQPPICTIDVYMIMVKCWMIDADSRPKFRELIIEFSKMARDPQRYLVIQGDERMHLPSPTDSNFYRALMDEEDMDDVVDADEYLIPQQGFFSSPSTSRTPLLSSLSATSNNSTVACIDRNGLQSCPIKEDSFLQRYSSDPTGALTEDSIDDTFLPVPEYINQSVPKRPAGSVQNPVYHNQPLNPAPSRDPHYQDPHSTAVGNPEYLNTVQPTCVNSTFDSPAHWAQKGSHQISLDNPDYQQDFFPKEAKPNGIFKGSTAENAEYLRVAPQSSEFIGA
# [30] = target: AP2-associated protein kinase 1 (Homo sapiens) (UniProt Q2M2I8); details: Compound concentration 1000.0 nM
# [31] = test system: Mast/stem cell growth factor receptor Kit (Homo sapiens), P10721 [D816V]; details: Compound concentration 1000.0 nM
# [32] = target: Androgen receptor (Homo sapiens) (UniProt P10275); assay: AR (h) Eurofins-Cerep binding assay; set-up: ligand concentration 1 nM; details: filed as agonist, Compound concentration 10.0 uM
# Chain of Androgen receptor (Homo sapiens) (P10275 whole entry): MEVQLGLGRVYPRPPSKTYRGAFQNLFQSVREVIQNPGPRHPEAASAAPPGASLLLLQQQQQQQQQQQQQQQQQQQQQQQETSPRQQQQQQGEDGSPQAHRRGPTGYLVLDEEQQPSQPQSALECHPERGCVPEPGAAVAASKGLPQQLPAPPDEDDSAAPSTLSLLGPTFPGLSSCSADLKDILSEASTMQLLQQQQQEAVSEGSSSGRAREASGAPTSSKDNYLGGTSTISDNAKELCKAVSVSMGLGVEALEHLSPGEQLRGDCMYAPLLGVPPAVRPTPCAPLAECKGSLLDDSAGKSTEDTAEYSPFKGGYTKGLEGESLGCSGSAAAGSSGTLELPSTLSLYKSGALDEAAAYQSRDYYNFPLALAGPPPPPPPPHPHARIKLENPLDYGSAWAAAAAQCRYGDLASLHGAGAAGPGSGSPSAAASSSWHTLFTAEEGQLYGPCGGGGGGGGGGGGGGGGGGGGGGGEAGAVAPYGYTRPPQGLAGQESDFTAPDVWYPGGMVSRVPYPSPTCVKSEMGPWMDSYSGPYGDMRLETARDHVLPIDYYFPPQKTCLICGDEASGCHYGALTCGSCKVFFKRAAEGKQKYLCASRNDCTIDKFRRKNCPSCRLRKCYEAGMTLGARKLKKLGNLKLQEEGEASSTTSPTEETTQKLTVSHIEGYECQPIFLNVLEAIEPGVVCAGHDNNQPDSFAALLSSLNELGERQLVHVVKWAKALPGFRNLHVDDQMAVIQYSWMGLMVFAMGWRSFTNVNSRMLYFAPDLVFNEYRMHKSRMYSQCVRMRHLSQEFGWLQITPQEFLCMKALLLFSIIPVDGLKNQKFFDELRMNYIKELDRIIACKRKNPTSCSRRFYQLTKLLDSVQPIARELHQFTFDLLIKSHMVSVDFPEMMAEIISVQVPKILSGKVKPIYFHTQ
# [33] = test system: Receptor-type tyrosine-protein kinase FLT3 (Homo sapiens), P36888 [D835H]; details: Compound concentration 1000.0 nM
# [34] = target: Wee1-like protein kinase 2 (Homo sapiens) (UniProt P0C1S8); details: Compound concentration 1000.0 nM
# [35] = target: Rho-associated protein kinase 1 (Homo sapiens) (UniProt Q13464); details: Compound concentration 1000.0 nM
# [36] = test system: eIF-2-alpha kinase GCN2 (Homo sapiens), Q9P2K8 [S808G]; details: Compound concentration 1000.0 nM
# [37] = target: Serine/threonine-protein kinase WNK1 (Homo sapiens) (UniProt Q9H4A3); details: Compound concentration 1000.0 nM
# [38] = target: Cyclin-dependent kinase 16 (Homo sapiens) (UniProt Q00536); details: Compound concentration 1000.0 nM
# Chain of Cyclin-dependent kinase 16 (Homo sapiens) (Q00536 whole entry): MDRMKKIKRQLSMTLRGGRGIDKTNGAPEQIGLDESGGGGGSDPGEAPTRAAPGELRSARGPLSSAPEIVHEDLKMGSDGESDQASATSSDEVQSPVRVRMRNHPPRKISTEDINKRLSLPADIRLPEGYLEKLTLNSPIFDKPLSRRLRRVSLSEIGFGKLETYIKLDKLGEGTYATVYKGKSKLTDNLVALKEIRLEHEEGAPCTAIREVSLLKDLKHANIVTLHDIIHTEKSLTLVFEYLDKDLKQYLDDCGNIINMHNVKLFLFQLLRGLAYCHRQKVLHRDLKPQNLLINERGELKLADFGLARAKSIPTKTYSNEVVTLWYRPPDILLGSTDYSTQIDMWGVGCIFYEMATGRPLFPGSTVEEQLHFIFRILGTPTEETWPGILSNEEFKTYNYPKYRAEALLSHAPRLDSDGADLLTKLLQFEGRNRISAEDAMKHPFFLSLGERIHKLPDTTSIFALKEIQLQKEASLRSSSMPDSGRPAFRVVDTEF
# [39] = target: Ribosomal protein S6 kinase alpha-2 (Homo sapiens) (UniProt Q15349); details: Compound concentration 1000.0 nM
# Chain of Ribosomal protein S6 kinase alpha-2 (Homo sapiens) (Q15349 whole entry): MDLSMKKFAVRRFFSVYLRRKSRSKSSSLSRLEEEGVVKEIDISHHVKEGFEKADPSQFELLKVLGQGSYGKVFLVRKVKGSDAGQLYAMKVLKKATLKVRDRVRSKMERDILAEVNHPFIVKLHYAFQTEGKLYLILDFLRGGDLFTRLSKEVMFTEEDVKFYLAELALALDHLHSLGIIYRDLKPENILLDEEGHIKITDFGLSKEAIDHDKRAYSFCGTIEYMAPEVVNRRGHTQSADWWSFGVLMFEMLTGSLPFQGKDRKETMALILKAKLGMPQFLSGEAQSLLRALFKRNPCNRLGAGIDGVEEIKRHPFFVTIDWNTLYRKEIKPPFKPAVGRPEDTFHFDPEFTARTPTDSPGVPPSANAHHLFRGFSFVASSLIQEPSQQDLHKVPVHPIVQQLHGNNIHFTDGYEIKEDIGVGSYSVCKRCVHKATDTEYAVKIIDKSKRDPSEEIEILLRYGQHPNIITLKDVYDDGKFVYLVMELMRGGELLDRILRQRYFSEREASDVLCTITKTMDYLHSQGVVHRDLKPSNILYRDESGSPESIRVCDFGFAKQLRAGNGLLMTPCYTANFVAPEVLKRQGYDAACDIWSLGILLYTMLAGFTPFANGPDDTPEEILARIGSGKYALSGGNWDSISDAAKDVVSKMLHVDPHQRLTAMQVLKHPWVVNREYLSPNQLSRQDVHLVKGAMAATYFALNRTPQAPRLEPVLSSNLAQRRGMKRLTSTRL
# [40] = target: Serine/threonine-protein kinase Nek4 (Homo sapiens) (UniProt P51957); details: Compound concentration 1000.0 nM
# Chain of Serine/threonine-protein kinase Nek4 (Homo sapiens) (P51957 whole entry, looked up): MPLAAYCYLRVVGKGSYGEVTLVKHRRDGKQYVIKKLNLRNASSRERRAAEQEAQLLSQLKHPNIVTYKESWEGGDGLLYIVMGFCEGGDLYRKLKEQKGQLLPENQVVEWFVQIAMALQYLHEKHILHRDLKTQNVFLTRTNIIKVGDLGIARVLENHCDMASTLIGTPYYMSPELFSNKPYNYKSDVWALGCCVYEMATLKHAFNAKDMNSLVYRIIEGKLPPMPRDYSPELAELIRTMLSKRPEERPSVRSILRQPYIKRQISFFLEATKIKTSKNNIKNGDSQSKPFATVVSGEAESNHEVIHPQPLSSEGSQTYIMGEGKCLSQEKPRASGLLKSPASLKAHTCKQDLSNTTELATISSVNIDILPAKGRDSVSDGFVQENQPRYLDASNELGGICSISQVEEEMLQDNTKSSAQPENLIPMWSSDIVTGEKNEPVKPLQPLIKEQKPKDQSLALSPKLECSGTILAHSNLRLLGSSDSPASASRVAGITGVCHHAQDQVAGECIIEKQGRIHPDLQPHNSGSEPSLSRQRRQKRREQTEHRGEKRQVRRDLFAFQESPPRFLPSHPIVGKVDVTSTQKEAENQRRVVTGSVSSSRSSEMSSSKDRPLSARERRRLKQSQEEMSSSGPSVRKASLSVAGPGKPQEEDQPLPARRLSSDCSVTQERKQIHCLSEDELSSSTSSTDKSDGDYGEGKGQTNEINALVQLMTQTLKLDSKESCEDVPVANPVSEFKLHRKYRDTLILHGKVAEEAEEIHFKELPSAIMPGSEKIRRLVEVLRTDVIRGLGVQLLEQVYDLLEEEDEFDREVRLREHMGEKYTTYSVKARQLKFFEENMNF
# [41] = target: RAF proto-oncogene serine/threonine-protein kinase (Homo sapiens) (UniProt P04049); details: Compound concentration 1000.0 nM
# [42] = target: Receptor-type tyrosine-protein kinase FLT3 (Homo sapiens) (UniProt P36888); details: Compound concentration 1000.0 nM
# [43] = target: Glycogen synthase kinase-3 beta (Homo sapiens) (UniProt P49841); details: Compound concentration 1000.0 nM
# [44] = target: Phosphatidylinositol 5-phosphate 4-kinase type-2 gamma (Homo sapiens) (UniProt Q8TBX8); details: Compound concentration 1000.0 nM
# Chain of Phosphatidylinositol 5-phosphate 4-kinase type-2 gamma (Homo sapiens) (Q8TBX8 whole entry): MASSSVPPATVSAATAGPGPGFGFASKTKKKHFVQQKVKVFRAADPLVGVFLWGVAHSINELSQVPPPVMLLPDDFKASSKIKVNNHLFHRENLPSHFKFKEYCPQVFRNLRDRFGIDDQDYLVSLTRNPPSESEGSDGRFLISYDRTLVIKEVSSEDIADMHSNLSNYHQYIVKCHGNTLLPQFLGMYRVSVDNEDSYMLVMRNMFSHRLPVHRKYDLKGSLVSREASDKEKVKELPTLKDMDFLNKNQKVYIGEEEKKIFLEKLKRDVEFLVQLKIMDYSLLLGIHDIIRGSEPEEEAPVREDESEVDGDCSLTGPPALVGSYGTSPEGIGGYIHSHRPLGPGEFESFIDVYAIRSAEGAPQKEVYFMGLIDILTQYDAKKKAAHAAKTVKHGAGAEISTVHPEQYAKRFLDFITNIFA
# [45] = test system: Epidermal growth factor receptor (Homo sapiens), P00533 [UNDEFINED MUTATION]; details: Compound concentration 1000.0 nM; remark: listed apart in the source
structure (smiles),measurement,setting,value
COc1ccc2c(c1)O[C@@H](c1ccc(OC)c(OC)c1)C[C@H]2NC(=O)C1(c2ccc3c(c2)OC(F)(F)O3)CC1 [A-1596586],residual activity,[1],100%
same,residual activity,[2],99%
same,residual activity,[3],88%
same,residual activity,[4],100%
same,residual activity,[5],96%
same,residual activity,[6],86%
same,residual activity,[7],84%
same,residual activity,[8],80%
same,residual activity,[9],77%
same,residual activity,[10],100%
same,% Inhibition of Control Specific Binding (Mean n=2),[11],4.7%
same,residual activity,[12],94%
same,residual activity,[13],91%
same,residual activity,[14],100%
same,residual activity,[15],96%
same,residual activity,[16],100%
same,residual activity,[17],99%
same,residual activity,[18],100%
same,inhibition,[19],3.77%
same,residual activity,[20],100%
same,residual activity,[21],100%
same,residual activity,[22],100%
same,residual activity,[23],92%
same,residual activity,[24],78%
same,% Inhibition of Control Specific Binding (Mean n=2),[25],-18.2%
same,residual activity,[26],92%
same,residual activity,[27],93%
same,residual activity,[28],100%
same,residual activity,[29],68%
same,residual activity,[30],91%
same,residual activity,[31],92%
same,% Inhibition of Control Specific Binding (Mean n=2),[32],7.1%
same,residual activity,[33],100%
same,residual activity,[34],100%
same,residual activity,[35],89%
same,residual activity,[36],95%
same,residual activity,[37],100%
same,residual activity,[38],88%
same,residual activity,[39],95%
same,residual activity,[40],75%
same,residual activity,[41],100%
same,residual activity,[42],80%
same,residual activity,[43],92%
same,residual activity,[44],83%
same,residual activity,[45],100%
COc1ccc2c(c1)O[C@H](c1ccc(OC)c(OC)c1)C[C@@H]2NC(=O)C1(c2ccc3c(c2)OC(F)(F)O3)CC1 [A-1596584],residual activity,[1],100%
same,residual activity,[2],100%
same,residual activity,[3],100%
same,residual activity,[4],100%
same,residual activity,[5],92%
same,residual activity,[6],100%
same,residual activity,[7],98%
same,residual activity,[8],88%
same,residual activity,[9],91%
same,residual activity,[10],100%
same,% Inhibition of Control Specific Binding (Mean n=2),[11],5.9%
same,residual activity,[12],100%
same,residual activity,[13],90%
same,residual activity,[14],100%
same,residual activity,[15],95%
same,residual activity,[16],88%
same,residual activity,[17],100%
same,residual activity,[18],100%
same,inhibition,[19],-7.53%
same,residual activity,[20],100%
same,residual activity,[21],100%
same,residual activity,[22],100%
same,residual activity,[23],88%
same,residual activity,[24],87%
same,% Inhibition of Control Specific Binding (Mean n=2),[25],-14.1%
same,residual activity,[26],89%
same,residual activity,[27],100%
same,residual activity,[28],100%
same,residual activity,[29],64%
same,residual activity,[30],100%
same,residual activity,[31],99%
same,% Inhibition of Control Specific Binding (Mean n=2),[32],-3.6%
same,residual activity,[33],100%
same,residual activity,[34],100%
same,residual activity,[35],84%
same,residual activity,[36],97%
same,residual activity,[37],100%
same,residual activity,[38],100%
same,residual activity,[39],95%
same,residual activity,[40],86%
same,residual activity,[41],100%
same,residual activity,[42],83%
same,residual activity,[43],100%
same,residual activity,[44],83%
same,residual activity,[45],98%
